The text below walks through data of patent US20250059180A1 (DONG WHA PHARM. CO., LTD., priority 2022, published 2025).

The structures appear in SMILES notation. Structures can show the parent of a compound that is named as a salt.

The subject of the assay is Pfeiffer cells, lymphoma cells having EZH2 mutation (A677G). Briefly: Proliferation inhibition of cells of hematologic malignancies (CCK-8, 11 days). Format: cell-based. Conditions: Homo sapiens, Pfeiffer, 264 h, 11 days culture, read-out: Cell proliferation inhibitory effect (IC50). In short, it runs like this: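 Pfeiffer lymphoma cells (EZH2 A677G) in RPMI1640 with 10% FBS were seeded at 10,000 cells/well and exposed to test material for 11 days, with compound replaced every 3–4 days. Viability was read by CCK-8 absorbance at 450 nm, and IC50 was derived by non-linear regression curve fitting.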

Take `CSc1cc(C)[nH]c(=O)c1CNC(=O)c1cc(-c2ccc(N3CCCCC3)nc2)c2c(c1C)OC(C)(C1CCN(CC(F)(F)F)CC1)O2` (stereo not drawn) [Compound 91, 2,4-dimethyl-N-((6-methyl-4-(methylthio)-2-oxo-1,2-dihydropyridin-3-yl)methyl)-7-(6-(piperidin-1-yl)pyridin-3-yl)-2-(1-(2,2,2-trifluoroethyl)piperidin-4-yl)benzo[d][1,3]dioxole-5-carboxamide]: the IC50 was at least 100 nM.

Regarding `CSc1cc(C)[nH]c(=O)c1CNC(=O)c1cc(-c2cnc(N3CCSCC3)nc2)c2c(c1C)OC(C)(C1CCN(CC(F)(F)F)CC1)O2` (stereo not drawn) [Compound 92, 2,4-dimethyl-N-((6-methyl-4-(methylthio)-2-oxo-1,2-dihydropyridin-3-yl)methyl)-7-(2-thiomorpholinopyrimidin-5-yl)-2-(1-(2,2,2-trifluoroethyl)piperidin-4-yl)benzo[d][1,3]dioxole-5-carboxamide], the IC50 fell in the range of 10 to 100 nM.

With `CSc1cc(C)[nH]c(=O)c1CNC(=O)c1cc(-c2ccc3c(c2)OC(F)(F)O3)c2c(c1C)OC(C)(C1CCN(CC(F)(F)F)CC1)O2` (stereo not drawn) [Compound 93, 2′,2′-difluoro-2,7-dimethyl-N-((6-methyl-4-(methylthio)-2-oxo-1,2-dihydropyridin-3-yl)methyl)-2-(1-(2,2,2-trifluoroethyl)piperidin-4-yl)-[4,5′-bibenzo[d][1,3]dioxol]-6-carboxamide], the IC50 was at least 100 nM.

On to `CSc1cc(C)[nH]c(=O)c1CNC(=O)c1cc(-c2ccc3c(c2)OCO3)c2c(c1C)OC(C)(C1CCN(CC(F)(F)F)CC1)O2` (stereo not drawn) [Compound 94, 2,7-dimethyl-N-((6-methyl-4-(methylthio)-2-oxo-1,2-dihydropyridin-3-yl)methyl)-2-(1-(2,2,2-trifluoroethyl)piperidin-4-yl)-[4,5′-bibenzo[d][1,3]dioxol]-6-carboxamide], for which the IC50 lay within 10 to 100 nM.

With `CSc1cc(C)[nH]c(=O)c1CNC(=O)c1cc(-c2ccc3c(c2)OCO3)c2c(c1C)OC(C)(C1CCN(CC(F)F)CC1)O2` (stereo not drawn) [Compound 95, 2-(1-(2,2-difluoroethyl)piperidin-4-yl)-2,7-dimethyl-N-((6-methyl-4-(methylthio)-2-oxo-1,2-dihydropyridin-3-yl)methyl)-[4,5′-bibenzo[d][1,3]dioxol]-6-carboxamide], the IC50 lay within 10 to 100 nM.

Take `CSc1cc(C)[nH]c(=O)c1CNC(=O)c1cc(-c2ccc3occc3c2)c2c(c1C)OC(C)(C1CCN(CC(F)(F)F)CC1)O2` (stereo not drawn) [Compound 96, 7-(benzofuran-5-yl)-2,4-dimethyl-N-((6-methyl-4-(methylthio)-2-oxo-1,2-dihydropyridin-3-yl)methyl)-2-(1-(2,2,2-trifluoroethyl)piperidin-4-yl)benzo[d][1,3]dioxole-5-carboxamide]: the IC50 was at least 100 nM.

As for `CSc1cc(C)[nH]c(=O)c1CNC(=O)c1cc(-c2ccc3occc3c2)c2c(c1C)OC(C)(C1CCN(CC(F)F)CC1)O2` (stereo not drawn) [Compound 97, 7-(benzofuran-5-yl)-2-(1-(2,2-difluoroethyl)piperidin-4-yl)-2,4-dimethyl-N-((6-methyl-4-(methylthio)-2-oxo-1,2-dihydropyridin-3-yl)methyl)benzo[d][1,3]dioxole-5-carboxamide], the IC50 was at least 100 nM.

For the molecule `CCCCN(C)c1ccc(-c2cc(C(=O)NCc3c(SC)cc(C)[nH]c3=O)c(C)c3c2OC(C)(C2CCN(CC(F)(F)F)CC2)O3)cn1` (stereo not drawn) [Compound 98, 7-(6-(butyl(methyl)amino)pyridin-3-yl)-2,4-dimethyl-N-((6-methyl-4-(methylthio)-2-oxo-1,2-dihydropyridin-3-yl)methyl)-2-(1-(2,2,2-trifluoroethyl)piperidin-4-yl)benzo[d][1,3]dioxole-5-carboxamide], the IC50 was at least 100 nM.

`CCCCN(C)c1ncc(-c2cc(C(=O)NCc3c(SC)cc(C)[nH]c3=O)c(C)c3c2OC(C)(C2CCN(CC(F)(F)F)CC2)O3)cn1` (stereo not drawn) [Compound 99]: the IC50 was at least 100 nM.

As to `CSc1cc(C)[nH]c(=O)c1CNC(=O)c1cc(-c2ccc(N3C[C@@H](C)O[C@@H](C)C3)nc2)c2c(c1C)OC(C)([C@H]1CC[C@H](N)CC1)O2` (stereo partly drawn) [Compound 100, 2-(trans-4-aminocyclohexyl)-7-(6-((2S,6R)-2,6-dimethylmorpholino)pyridin-3-yl)-2,4-dimethyl-N-((6-methyl-4-(methylthio)-2-oxo-1,2-dihydropyridin-3-yl)methyl)benzo[d][1,3]dioxole-5-carboxamide hydrochloride salt], the IC50 was at most 10 nM.

As to `CSc1cc(C)[nH]c(=O)c1CNC(=O)c1cc(-c2ccc(N3C[C@@H](C)O[C@@H](C)C3)nc2)c2c(c1C)OC(C)([C@H]1CC[C@H](N3CC(O)C3)CC1)O2` (stereo partly drawn) [Compound 101, 7-(6-((2S,6R)-2,6-dimethylmorpholino)pyridin-3-yl)-2-(trans-4-(3-hydroxyazetidin-1-yl)cyclohexyl)-2,4-dimethyl-N-((6-methyl-4-(methylthio)-2-oxo-1,2-dihydropyridin-3-yl)methyl)benzo[d][1,3]dioxole-5-carboxamide], the IC50 is at most 10 nM.

With `CSc1cc(C)[nH]c(=O)c1CNC(=O)c1cc(-c2ccc(N3C[C@@H](C)O[C@@H](C)C3)nc2)c2c(c1C)OC(C)([C@H]1CC[C@H](N3CC(OCC(F)(F)F)C3)CC1)O2` (stereo partly drawn) [Compound 102], the IC50 was 10 to 100 nM.

In the case of `CSc1cc(C)[nH]c(=O)c1CNC(=O)c1cc(-c2ccc(N3C[C@@H](C)O[C@@H](C)C3)nc2)c2c(c1C)OC(C)([C@H]1CC[C@H](N3CC(OCC(F)F)C3)CC1)O2` (stereo partly drawn) [Compound 103, 2-(trans-4-(3-(2,2-difluoroethoxy)azetidin-1-yl)cyclohexyl)-7-(6-((2S,6R)-2,6-dimethylmorpholino)pyridin-3-yl)-2,4-dimethyl-N-((6-methyl-4-(methylthio)-2-oxo-1,2-dihydropyridin-3-yl)methyl)benzo[d][1,3]dioxole-5-carboxamide], the IC50 is at most 10 nM.

As for `CSc1cc(C)[nH]c(=O)c1CNC(=O)c1cc(-c2ccc(N3C[C@@H](C)O[C@@H](C)C3)nc2)c2c(c1C)OC(C)([C@H]1CC[C@H](N3CC(OC(C)C)C3)CC1)O2` (stereo partly drawn) [Compound 105, 7-(6-((2S,6R)-2,6-dimethylmorpholino)pyridin-3-yl)-2-(trans-4-(3-isopropoxyazetidin-1-yl)cyclohexyl)-2,4-dimethyl-N-((6-methyl-4-(methylthio)-2-oxo-1,2-dihydropyridin-3-yl)methyl)benzo[d][1,3]dioxole-5-carboxamide], the IC50 is at least 100 nM.

Take `COC1CN([C@H]2CC[C@H](C3(C)Oc4c(-c5ccc(N6C[C@@H](C)O[C@@H](C)C6)nc5)cc(C(=O)NCc5c(SC)cc(C)[nH]c5=O)c(C)c4O3)CC2)C1` (stereo partly drawn) [Compound 106, 7-(6-((2S,6R)-2,6-dimethylmorpholino)pyridin-3-yl)-2-(trans-4-(3-methoxyazetidin-1-yl)cyclohexyl)-2,4-dimethyl-N-((6-methyl-4-(methylthio)-2-oxo-1,2-dihydropyridin-3-yl)methyl)benzo[d][1,3]dioxole-5-carboxamide]: the IC50 was at most 10 nM.

For the molecule `CSc1cc(C)[nH]c(=O)c1CNC(=O)c1cc(-c2ccc(N3C[C@@H](C)O[C@@H](C)C3)nc2)c2c(c1C)OC(C)([C@H]1CC[C@H](N(C)CC(F)F)CC1)O2` (stereo partly drawn) [Compound 109], the IC50 was at most 10 nM.

Take `CSc1cc(C)[nH]c(=O)c1CNC(=O)c1cc(-c2ccc(N3C[C@@H](C)O[C@@H](C)C3)nc2)c2c(c1C)OC(C)([C@H]1CC[C@H](N(C)C(C)C)CC1)O2` (stereo partly drawn) [Compound 110, 7-(6-((2S,6R)-2,6-dimethylmorpholino)pyridin-3-yl)-2-(trans-4-(isopropyl(methyl)amino)cyclohexyl)-2,4-dimethyl-N-((6-methyl-4-(methylthio)-2-oxo-1,2-dihydropyridin-3-yl)methyl)benzo[d][1,3]dioxole-5-carboxamide]: the IC50 was at most 10 nM.

As to `CCN(C)[C@H]1CC[C@H](C2(C)Oc3c(-c4ccc(N5C[C@@H](C)O[C@@H](C)C5)nc4)cc(C(=O)NCc4c(SC)cc(C)[nH]c4=O)c(C)c3O2)CC1` (stereo partly drawn) [Compound 111, 7-(6-((2S,6R)-2,6-dimethylmorpholino)pyridin-3-yl)-2-(trans-4-(ethyl(methyl)amino)cyclohexyl)-2,4-dimethyl-N-((6-methyl-4-(methylthio)-2-oxo-1,2-dihydropyridin-3-yl)methyl)benzo[d][1,3]dioxole-5-carboxamide], the IC50 is at most 10 nM.

Take `CSc1cc(C)[nH]c(=O)c1CNC(=O)c1cc(-c2ccc(N3C[C@@H](C)O[C@@H](C)C3)nc2)c2c(c1C)OC(C)([C@H]1CC[C@H](N(C)CCc3ccccc3)CC1)O2` (stereo partly drawn) [Compound 112, 7-(6-((2S,6R)-2,6-dimethylmorpholino)pyridin-3-yl)-2,4-dimethyl-2-(trans-4-(methyl(phenethyl)amino)cyclohexyl)-N-((6-methyl-4-(methylthio)-2-oxo-1,2-dihydropyridin-3-yl)methyl)benzo[d][1,3]dioxole-5-carboxamide]: the IC50 was at most 10 nM.

Turning to `CSc1cc(C)[nH]c(=O)c1CNC(=O)c1cc(-c2ccc(N3C[C@@H](C)O[C@@H](C)C3)nc2)c2c(c1C)OC(C)([C@H]1CC[C@H](N(C)C3CCCCC3)CC1)O2` (stereo partly drawn) [Compound 114, 2-(trans-4-(cyclohexyl(methyl)amino)cyclohexyl)-7-(6-((2S,6R)-2,6-dimethylmorpholino)pyridin-3-yl)-2,4-dimethyl-N-((6-methyl-4-(methylthio)-2-oxo-1,2-dihydropyridin-3-yl)methyl)benzo[d][1,3]dioxole-5-carboxamide], the IC50 is at most 10 nM.

On to `CSc1cc(C)[nH]c(=O)c1CNC(=O)c1cc(-c2ccc(N3C[C@@H](C)O[C@@H](C)C3)nc2)c2c(c1C)OC(C)([C@H]1CC[C@H](N(C)C(=O)C(F)(F)F)CC1)O2` (stereo partly drawn) [Compound 115, 7-(6-((2S,6R)-2,6-dimethylmorpholino)pyridin-3-yl)-2,4-dimethyl-N-((6-methyl-4-(methylthio)-2-oxo-1,2-dihydropyridin-3-yl)methyl)-2-(trans-4-(2,2,2-trifluoro-N-methylacetamido)cyclohexyl)benzo[d][1,3]dioxole-5-carboxamide], for which the IC50 fell in the range of 10 to 100 nM.
